In PubChem BioAssay AID248 (DTP/NCI, 2004):
Values joined by “and” are separate entries in the source; they are usually repeats but may differ in a detail not shown here. Equal entries are not always repeated. Inconclusive results and toxic doses are left out.

System: L1210 leukemia ip in BDF1 mice, survival T/C
Experiment: NCI In Vivo Anticancer Drug Screen. Data for tumor model L1210 Leukemia (intraperitoneal) in B6D2F1 (BDF1) mice
Settings: endpoint: mean survival time, higher = longer survival
In short: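 Transplanted-tumor mice were given test agent; controls received vehicle only. Survival readings from the two groups were divided (treated over control).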

[1] = dose: 100.0 mg/kg/injection, schedule: Q01DX001 (ip), vehicle: saline
[2] = dose: 200.0 mg/kg/injection, schedule: Q01DX001 (ip), vehicle: saline
[3] = dose: 400.0 mg/kg/injection, schedule: Q01DX001 (ip), vehicle: saline
[4] = dose: 100.0 mg/kg/injection, schedule: Q04DX003 (ip), vehicle: Klucel (hydroxypropylcellulose) (HPC)
[5] = dose: 200.0 mg/kg/injection, schedule: Q04DX003 (ip), vehicle: Klucel (hydroxypropylcellulose) (HPC)
[6] = dose: 400.0 mg/kg/injection, schedule: Q04DX003 (ip), vehicle: Klucel (hydroxypropylcellulose) (HPC)
[7] = dose: 12.5 mg/kg/injection, schedule: Q04DX003 (ip), vehicle: saline
[8] = dose: 25.0 mg/kg/injection, schedule: Q04DX003 (ip), vehicle: saline
[9] = dose: 25.0 mg/kg/injection, schedule: Q01DX009 (ip), vehicle: saline with Tween-80
[10] = dose: 50.0 mg/kg/injection, schedule: Q01DX009 (ip), vehicle: saline with Tween-80
[11] = dose: 100.0 mg/kg/injection, schedule: Q01DX009 (ip), vehicle: saline with Tween-80
[12] = dose: 200.0 mg/kg/injection, schedule: Q01DX009 (ip), vehicle: saline with Tween-80

Clc1ncnc2c1ncn2C1CCCCO1 (stereo not drawn)
T/C (dose: 31.0 mg/kg/injection, schedule: Q01DX Z (ip), vehicle: other): 101 % of control
T/C (dose: 62.0 mg/kg/injection, schedule: Q01DX Z (ip), vehicle: other): 103 % of control
T/C [1]: 91 % of control
T/C (dose: 100.0 mg/kg/injection, schedule: Q01DX009 (ip), vehicle: saline sonified): 110 % of control
T/C (dose: 175.0 mg/kg/injection, schedule: Q01DX015 (ip), vehicle: saline): 113 % of control
T/C [2]: 98 % of control
T/C (dose: 200.0 mg/kg/injection, schedule: Q01DX009 (ip), vehicle: saline sonified): 118 % of control
T/C (dose: 265.0 mg/kg/injection, schedule: Q01DX015 (ip), vehicle: saline): 123 % of control
T/C [3]: 102 % of control
T/C (dose: 400.0 mg/kg/injection, schedule: Q01DX009 (ip), vehicle: saline sonified): 150 % of control
T/C (dose: 400.0 mg/kg/injection, schedule: Q01DX015 (ip), vehicle: saline): 123 % of control

C/C(CCCCCCCCC#N)=N/Nc1ccc([N+](=O)[O-])cc1[N+](=O)[O-]
T/C [4]: 93 % of control
T/C [5]: 93 % of control
T/C [6]: 98 % of control

O=[N+]([O-])c1ccc(C[n+]2ccc3ccccc3c2)cc1
T/C (dose: 12.5 mg/kg/injection, schedule: Q01DX009 (ip), vehicle: saline): 96 % of control
T/C [7]: 97 % of control
T/C (dose: 25.0 mg/kg/injection, schedule: Q01DX009 (ip), vehicle: saline): 95 % of control
T/C [8]: 92 % of control
T/C (dose: 50.0 mg/kg/injection, schedule: Q01DX009 (ip), vehicle: saline): 101 % of control
T/C (dose: 50.0 mg/kg/injection, schedule: Q04DX003 (ip), vehicle: saline): 92 % of control

C#CCSP(=O)(O)O
T/C [9]: 103 % of control
T/C [10]: 103 % of control

C[N+](C)(CC(=O)Nc1cccc(C(F)(F)F)c1)CC(=O)Nc1cccc(C(F)(F)F)c1
T/C (dose: 12.5 mg/kg/injection, schedule: Q01DX009 (ip), vehicle: saline with Tween-80): 88 % of control
T/C [9]: 94 % of control
T/C [10]: 113 % of control

O=[N+]([O-])c1ccc(S(=O)CCCl)c([N+](=O)[O-])c1 (stereo not drawn)
T/C (dose: 6.25 mg/kg/injection, schedule: Q04DX003 (ip), vehicle: saline): 96 % of control
T/C [7]: 97 % of control
T/C (dose: 25.0 mg/kg/injection, schedule: Q04DX003 (ip), vehicle: saline with Tween-80): 100 % of control
T/C [8]: 97 % of control

COc1ccc(OC)c2c1CCCC21OCCO1
T/C [10]: 105 % of control
T/C (dose: 100.0 mg/kg/injection, schedule: Q01DX001 (ip), vehicle: saline with Tween-80): 95 % of control
T/C [11]: 102 % of control
T/C (dose: 200.0 mg/kg/injection, schedule: Q01DX001 (ip), vehicle: saline with Tween-80): 96 % of control
T/C [12]: 100 % of control

O=C1OCC/C1=C\NCCCN/C=C1\CCOC1=O
T/C (dose: 100.0 mg/kg/injection, schedule: Q04DX002 (ip), vehicle: Klucel (hydroxypropylcellulose) (HPC)): 105 % of control
T/C (dose: 200.0 mg/kg/injection, schedule: Q04DX002 (ip), vehicle: Klucel (hydroxypropylcellulose) (HPC)): 108 % of control
T/C (dose: 400.0 mg/kg/injection, schedule: Q04DX002 (ip), vehicle: Klucel (hydroxypropylcellulose) (HPC)): 94 % of control

CC(=O)NC1=C(S(=O)(=O)O)c2ccccc2C1
T/C [1]: 105 % of control
T/C (dose: 100.0 mg/kg/injection, schedule: Q01DX009 (ip), vehicle: saline): 98 % of control
T/C (dose: 100.0 mg/kg/injection, schedule: Q04DX002 (ip), vehicle: saline): 94 % of control and 110 % of control and 118 % of control
T/C (dose: 100.0 mg/kg/injection, schedule: Q04DX003 (ip), vehicle: saline): 104 % of control
T/C [2]: 115 % of control
T/C (dose: 200.0 mg/kg/injection, schedule: Q01DX009 (ip), vehicle: saline): 98 % of control and 104 % of control
T/C (dose: 200.0 mg/kg/injection, schedule: Q04DX002 (ip), vehicle: saline): 94 % of control and 103 % of control
T/C (dose: 200.0 mg/kg/injection, schedule: Q04DX003 (ip), vehicle: saline): 96 % of control
T/C [3]: 108 % of control
T/C (dose: 400.0 mg/kg/injection, schedule: Q01DX009 (ip), vehicle: saline): 105 % of control and 106 % of control
T/C (dose: 400.0 mg/kg/injection, schedule: Q04DX002 (ip), vehicle: saline): 102 % of control and 109 % of control and 88 % of control
T/C (dose: 400.0 mg/kg/injection, schedule: Q04DX003 (ip), vehicle: saline): 102 % of control

CCCCCCCCCCCCCCCCS(=O)(=O)CCO
T/C [11]: 98 % of control
T/C [12]: 93 % of control
T/C (dose: 400.0 mg/kg/injection, schedule: Q01DX009 (ip), vehicle: saline with Tween-80): 92 % of control

Cc1cccc(C2CCCC2c2ccccc2)c1 (stereo not drawn)
T/C (dose: 100.0 mg/kg/injection, schedule: Q01DX009 (ip), vehicle: Klucel (hydroxypropylcellulose) (HPC)): 96 % of control
T/C [4]: 110 % of control
T/C (dose: 200.0 mg/kg/injection, schedule: Q01DX009 (ip), vehicle: Klucel (hydroxypropylcellulose) (HPC)): 89 % of control
T/C [5]: 94 % of control
T/C (dose: 400.0 mg/kg/injection, schedule: Q01DX009 (ip), vehicle: Klucel (hydroxypropylcellulose) (HPC)): 101 % of control
T/C [6]: 108 % of control
